According to patent publication US11229205B2, “Herbicidally active pyridyl-/pyrimidyl-pyrazine derivatives” (Syngenta Participations AG, priority 2017, dated 2022):

Legend:
Format in all cases: in vivo
[1] = tested on: Alopecurus myosuroides (ALOMY); assay: Pre-emergence herbicidal activity (B1); settings: Test 1b; pre-emergence application; rate 1000 g/ha; evaluated after 13 days; score 0-5
Procedure: (§1) Seeds of a variety of test species were sown in standard soil in pots: Triticum aestivium (TRZAW), Avena fatua (AVEFA), Alopecurus myosuroides (ALOMY), Echinochloa crus-galli (ECHCG), Lolium perenne (LOLPE), Zea Mays (ZEAMX), Abutilon theophrasti (ABUTH), Amaranthus retroflexus (AMARE) and Setaria faberi (SETFA). […] The test plants were then grown in a glasshouse under controlled conditions (at 24/16° C., day/night; 14 hours light; 65% humidity) and watered twice daily. After 13 days, the test was evaluated (5=total damage to plant; 0=no damage to plant).

[2] = tested on: Setaria faberi (SETFA); assay: Pre-emergence herbicidal activity (B1); settings: Test 1b; pre-emergence application; rate 1000 g/ha; evaluated after 13 days; score 0-5
Procedure: as §1

[3] = tested on: Lolium perenne (LOLPE); assay: Pre-emergence herbicidal activity (B1); settings: Test 1b; pre-emergence application; rate 1000 g/ha; evaluated after 13 days; score 0-5
Procedure: as §1

[4] = tested on: Echinochloa crus-galli (ECHCG); assay: Pre-emergence herbicidal activity (B1); settings: Test 1b; pre-emergence application; rate 1000 g/ha; evaluated after 13 days; score 0-5
Procedure: as §1

[5] = tested on: Triticum aestivium (TRZAW); assay: Pre-emergence herbicidal activity (B1); settings: Test 1b; pre-emergence application; rate 1000 g/ha; evaluated after 13 days; score 0-5
Procedure: as §1

[6] = tested on: Avena fatua (AVEFA); assay: Pre-emergence herbicidal activity (B1); settings: Test 1b; pre-emergence application; rate 1000 g/ha; evaluated after 13 days; score 0-5
Procedure: as §1

[7] = tested on: Alopecurus myosuroides (ALOMY); assay: Post-emergence herbicidal activity (B2); settings: Test B2b; post-emergence application; rate 1000 g/ha; evaluated after 13 days; score 0-5
Procedure: as §1

[8] = tested on: Setaria faberi (SETFA); assay: Post-emergence herbicidal activity (B2); settings: Test B2b; post-emergence application; rate 1000 g/ha; evaluated after 13 days; score 0-5
Procedure: as §1

[9] = tested on: Lolium perenne (LOLPE); assay: Post-emergence herbicidal activity (B2); settings: Test B2b; post-emergence application; rate 1000 g/ha; evaluated after 13 days; score 0-5
Procedure: as §1

[10] = tested on: Echinochloa crus-galli (ECHCG); assay: Post-emergence herbicidal activity (B2); settings: Test B2b; post-emergence application; rate 1000 g/ha; evaluated after 13 days; score 0-5
Procedure: as §1

[11] = tested on: Triticum aestivium (TRZAW); assay: Post-emergence herbicidal activity (B2); settings: Test B2b; post-emergence application; rate 1000 g/ha; evaluated after 13 days; score 0-5
Procedure: as §1

[12] = tested on: Avena fatua (AVEFA); assay: Post-emergence herbicidal activity (B2); settings: Test B2b; post-emergence application; rate 1000 g/ha; evaluated after 13 days; score 0-5
Procedure: as §1

SMILES | damage to plant, ALOMY [1] | damage to plant, SETFA [2] | damage to plant, LOLPE [3] | damage to plant, ECHCG [4] | damage to plant, TRAZW [5] | damage to plant, AVEFA [6] | damage to plant, ALOMY [7] | damage to plant, SETFA [8] | damage to plant, LOLPE [9] | damage to plant, ECHCG [10] | damage to plant, TRAZW [11] | damage to plant, AVEFA [12]
Nc1ncc(-c2cncc(F)c2)nc1Br [Compound G8, 2-amino-3-bromo-5-(5-fluoropyrid-3-yl)pyrazine] | 0 | 0 | 0 | 0 | 0 | 0 | 0 | 1 | 0 | 2 | 0 | 0
CCCNc1ncc(-c2cncc(F)c2)nc1C(F)(F)F [Compound G23] | 1 | 3 | 1 | 2 | 0 | 0 | 0 | 4 | 1 | 4 | 0 | 1
CNc1ncc(-c2cncc(F)c2)nc1C [Compound G17, 2-methylamino-3-methyl-5-(5-fluoropyrid-3-yl)pyrazine] | 0 | 0 | 0 | 0 | 0 | 0 | 0 | 1 | 0 | 1 | 0 | 0
N#Cc1nc(-c2cncc(F)c2)cnc1N [Compound G7] | 0 | 1 | 0 | 1 | 0 | 0 | 0 | 2 | 0 | 3 | 0 | 1
Nc1ncc(-c2cncnc2)nc1OCc1ccccc1 [Compound G10] | 0 | 0 | 0 | 0 | 0 | 0 | 0 | 1 | 0 | 1 | 0 | 0
OCNc1ncc(-c2cncc(F)c2)nc1C(F)(F)F [Compound G12, 2-hydroxymethylamino-3-trifluoromethyl-5-(5-fluoropyrid-3-yl)pyrazine] | 0 | 5 | 0 | 3 | 0 | 1 | 0 | 3 | 0 | 2 | 0 | 5
Nc1ncc(-c2cncnc2)nc1C(F)(F)F [Compound G6] | 0 | 2 | 0 | 1 | 0 | 1 | 0 | 3 | 1 | 3 | 0 | 1
C=C(C)c1nc(-c2cncc(F)c2)cnc1N [Compound G14, 5-(5-fluoro-3-pyridyl)-3-isopropenyl-pyrazin-2-amine] | 0 | 2 | 0 | 1 | 0 | 0 | 0 | 4 | 1 | 1 | 0 | 1
C[Si](C)(C)C#Cc1nc(-c2cncc(F)c2)cnc1N [Compound G20] | 0 | 0 | 0 | 0 | 0 | 0 | 0 | 0 | 0 | 0 | 1 | 1
CC(C)c1nc(-c2cncc(F)c2)cnc1N [Compound G15, 2-amino-3-(prop-2-yl)-5-(5-fluoropyrid-3-yl)pyrazine] | 0 | 0 | 2 | 0 | 0 | 0 | 0 | 4 | 0 | 1 | 0 | 0
COc1nc(-c2cncc(F)c2)cnc1N [Compound G5] | 0 | 1 | 0 | 1 | 0 | 0 | 1 | 3 | 0 | 2 | 0 | 1
Cc1nc(-c2cncc(F)c2)cnc1N [Compound G4] | 0 | 1 | 0 | 1 | 0 | 1 | 0 | 3 | 0 | 2 | 0 | 1
C=Cc1nc(-c2cncc(F)c2)cnc1N [Compound G18] | 0 | 0 | 0 | 0 | 0 | 0 | 0 | 1 | 0 | 1 | 0 | 1
Nc1ncc(-c2cncc(F)c2)nc1OCc1ccccc1 [Compound G11] | 0 | 0 | 0 | 0 | 0 | 0 | 0 | 1 | 0 | 1 | 0 | 1
CCOC(=O)c1nc(-c2cncnc2)cnc1N [Compound G2] | 0 | 2 | 0 | 0 | 0 | 0 | 1 | 3 | 1 | 1 | 0 | 1
Cc1nc(-c2cncc(F)c2)cnc1N(C)C [Compound G13, 2-dimethylamino-3-methyl-5-(5-fluoropyrid-3-yl)pyrazine] | 0 | 1 | 0 | 0 | 0 | 0 | 0 | 3 | 0 | 1 | 0 | 1
Nc1ncc(-c2cncc(F)c2)nc1C(F)(F)F [Compound G3, 2-amino-3-trifluoromethyl-5-(5-fluoropyrid-3-yl) pyrazine] | 1 | 4 | 0 | 3 | 1 | 1 | 0 | 3 | 2 | 4 | 0 | 3
CCc1nc(-c2cncc(F)c2)cnc1N [Compound G19] | 0 | 4 | 1 | 1 | 0 | 0 | 0 | 3 | 0 | 2 | 0 | 1
